# Measured values published in patent US20230391772A1, “METHODS AND COMPOSITIONS FOR TARGETED PROTEIN DEGRADATION” (Ranok Therapeutics (Hangzhou) Co. Ltd., priority 2020, published 2023).
# Key:
# [1] = tested on: NCI-H358 human non-small cell lung cancer; experiment: NCI-H358 CCK-8 proliferation assay; assay type: cell-based; conditions: NCI-H358 cells, 72 hr
# Summary of the method: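 KRAS(G12C) lines were used: MIA PaCa-2 with 2 copies, and NCI-H358 and NCI-H23 with 1 copy each. Cells were treated with 3-fold compound dilutions from 20 μM to 1.02 nM, and proliferation was read by CCK-8 absorbance. % inhibition was calculated against DMSO-treated cells after subtracting the cell-free medium blank.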
# [2] = tested on: NCI-H23 human non-small cell lung cancer; experiment: NCI-H23 CCK-8 proliferation assay; assay type: cell-based; conditions: NCI-H23 cells, 72 hr
# Method: The following cancer cell lines were employed: BT-474 human breast carcinoma (ATCC, #HTB-20); MIA PaCa-2 human pancreatic carcinoma [2 copies KRAS(G12C)](ATCC, #CRL-1420); NCI-H23 human non-small cell lung cancer [1 copy KRAS(G12C)](ATCC, #CRL-5800); NCI-H358 human non-small cell lung cancer [1 copy KRAS(G12C)](ATCC, #CRL-5807); LU65A human lung carcinoma (Pharmaron, Beijing, China). Cell lines were cultured essentially according to ATCC and Pharmaron recommendations.
# Cancer Cell Line Proliferation (CCK-8) Assays
# 3-fold serial dilutions of each test compound were prepared ranging from 20 μM to 1.02 nM.
# % Inhibition=100−(D−B)/(S−B)*100%. • S: Absorbance of cells treated with DMSO • D: Absorbance of compound-treated cells • B: Absorbance of medium with DMSO without cells
# HSP90a protein = molecular target: T1, HSP90a protein (Homo sapiens, UniProt P07900); experiment: HSP90α-binding fluorescent polarization (FP) assay, BODIPY-labeled RNK04010 probe; conditions: FP competition with RNK04010 (BODIPY-labeled), 5 nM, 300 min at 25° C.
# T1 construct: purchased BPS Bioscience 50298
# Summary of the method: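 N-terminal HSP90a construct; tracer 5 nM final (FITC-geldanamycin or BODIPY-RNK04010, a labeled triazolone binder). Compounds 20 μM–5.2 nM, 2.5-fold steps. 25° C, 120 min (FITC) / 300 min (BODIPY). FP readout.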
SMILES,EC50 [1] [µM],EC50 [2] [µM],IC50 (HSP90a protein) [µM]
"CCCc1cc(-c2nnc(O)n2-c2ccc(CN3CCN(CC4CCN(C(=O)CCNc5nc6c(c(N7CCN(C(C)=O)CC7)n5)CCN(c5cc(O)cc7ccccc57)C6)CC4)CC3)cc2)c(O)cc1O [Compound 59, 3-((4-(4-acetylpiperazin-1-yl)-7-(3-hydroxynaphthalen-1-yl)-5,6,7,8-tetrahydropyrido[3,4-d]pyrimidin-2-yl)amino)-1-(4-((4-(4-(3-(2,4-dihydroxy-5-propylphenyl)-5-hydroxy-4H-1,2,4-triazol-4-yl)benzyl)piperazin-1-yl)methyl)piperidin-1-yl)propan-1-one, trifluoroacetic acid]",0.1 to 1,> 1,0.1 to 1
"C=CC(=O)N1CCN(c2nc(NCCC(=O)N3CCC(Cc4ccc(-n5c(C(=O)NCC(F)(F)F)nnc5-c5cc(C(C)C)c(O)cc5O)cc4)CC3)nc3c2CCN(c2cc(O)cc4ccccc24)C3)CC1 [Compound 11, 4-(4-((1-(3-((4-(4-acryloylpiperazin-1-yl)-7-(3-hydroxynaphthalen-1-yl)-5,6,7,8-tetrahydropyrido[3,4-d]pyrimidin-2-yl)amino)propanoyl)piperidin-4-yl)methyl)phenyl)-5-(2,4-dihydroxy-5-isopropylphenyl)-N-(2,2,2-trifluoroethyl)-4H-1,2,4-triazole-3-carboxamide, trifluoroacetic acid]",0.1 to 1,> 1,> 1
"C=CC(=O)N1CCN(c2nc(NCCC(=O)N3CCC(CN4CCN(Cc5ccc(-n6c(C(=O)NCC(F)(F)F)nnc6-c6cc(C)c(O)cc6O)cc5)CC4)CC3)nc3c2CCN(c2cc(O)cc4ccccc24)C3)CC1 [Compound 10, 4-(4-((4-((1-(3-((4-(4-acryloylpiperazin-1-yl)-7-(3-hydroxynaphthalen-1-yl)-5,6,7,8-tetrahydropyrido[3,4-d]pyrimidin-2-yl)amino)propanoyl)piperidin-4-yl)methyl)piperazin-1-yl)methyl)phenyl)-5-(2,4-dihydroxy-5-methylphenyl)-N-(2,2,2-trifluoroethyl)-4H-1,2,4-triazole-3-carboxamide, trifluoroacetic acid]",0.1 to 1,0.1 to 1,0.1 to 1
CCC(=O)N1CCN(c2nc(NCCC(=O)N[C@H](C)c3ccc(CN4CCC(Cc5ccc(-n6c(O)nnc6-c6cc(C(C)C)c(O)cc6O)cc5)CC4)cc3)nc3c2CCN(c2cc(O)cc4ccccc24)C3)CC1 [Compound 61],0.1 to 1,> 1,< 0.1
"C=CC(=O)N1CCN(c2nc(OCCC(=O)N3CCC(CN4CCN(Cc5ccc(-n6c(O)nnc6-c6cc(C(C)C)c(O)cc6O)cc5)CC4)CC3)nc3c2CCN(c2cc(O)cc4ccccc24)C3)CC1 [Compound 15, 1-(4-(2-(3-(4-((4-(4-(3-(2,4-dihydroxy-5-isopropylphenyl)-5-hydroxy-4H-1,2,4-triazol-4-yl)benzyl)piperazin-1-yl)methyl)piperidin-1-yl)-3-oxopropoxy)-7-(3-hydroxynaphthalen-1-yl)-5,6,7,8-tetrahydropyrido[3,4-d]pyrimidin-4-yl)piperazin-1-yl)prop-2-en-1-one, trifluoroacetic acid]",0.1 to 1,0.1 to 1,< 0.1
"CC(=O)N1CCN(c2nc(NCCC(=O)N[C@H](C)c3ccc(CN4CCC(Cc5ccc(-n6c(O)nnc6-c6cc(C(C)C)c(O)cc6O)cc5)CC4)cc3)nc3c2CCN(c2cc(O)cc4ccccc24)C3)CC1 [Compound 60, (R)-3-((4-(4-acetylpiperazin-1-yl)-7-(3-hydroxynaphthalen-1-yl)-5,6,7,8-tetrahydropyrido[3,4-d]pyrimidin-2-yl)amino)-N-(1-(4-((4-(4-(3-(2,4-dihydroxy-5-isopropylphenyl)-5-hydroxy-4H-1,2,4-triazol-4-yl)benzyl)piperidin-1-yl)methyl)phenyl)ethyl)propanamide, trifluoroacetic acid]",0.1 to 1,> 1,< 0.1

# Second part, the molecule after the results:
EC50 [1] [µM],EC50 [2] [µM],IC50 (HSP90a protein) [µM],SMILES
0.1 to 1,0.1 to 1,0.1 to 1,"C=CC(=O)N1CCN(c2nc(NCCC(=O)N3CCC(CN4CCN(Cc5ccc(-n6c(C(N)=O)nnc6-c6cc(CC)c(O)cc6O)cc5)CC4)CC3)nc3c2CCN(c2cccc4cccc(Cl)c24)C3)C[C@H]1CC#N [Compound 99, (R)-4-(4-((4-((1-(3-((4-(4-acryloyl-3-(cyanomethyl)piperazin-1-yl)-7-(8-chloronaphthalen-1-yl)-5,6,7,8-tetrahydropyrido[3,4-d]pyrimidin-2-yl)amino)propanoyl)piperidin-4-yl)methyl)piperazin-1-yl)methyl)phenyl)-5-(5-ethyl-2,4-dihydroxyphenyl)-4H-1,2,4-triazole-3-carboxamide, trifluoroacetic acid]"
0.1 to 1,> 1,< 0.1,"CCc1cc(-c2nnc(C(N)=O)n2-c2ccc(CN3CCN(CC4CCN(C(=O)CCNc5nc6c(c(N7CCN(C(C)=O)CC7)n5)CCN(c5cc(O)cc7ccccc57)C6)CC4)CC3)cc2)c(O)cc1O [Compound 69, 4-(4-((4-((1-(3-((4-(4-acetylpiperazin-1-yl)-7-(3-hydroxynaphthalen-1-yl)-5,6,7,8-tetrahydropyrido[3,4-d]pyrimidin-2-yl)amino)propanoyl)piperidin-4-yl)methyl)piperazin-1-yl)methyl)phenyl)-5-(5-ethyl-2,4-dihydroxyphenyl)-4H-1,2,4-triazole-3-carboxamide, trifluoroacetic acid]"
0.1 to 1,0.1 to 1,0.1 to 1,"C=CC(=O)N1CCN(c2nc(NCCC(=O)N3CCC(CN4CCN(Cc5ccc(-n6c(O)nnc6-c6cc(C(C)C)c(O)cc6O)cc5)CC4)CC3)nc3c2CCN(c2cccc4cccc(Cl)c24)C3)C[C@H]1CC#N [Compound 87, (R)-2-(1-acryloyl-4-(7-(8-chloronaphthalen-1-yl)-2-((3-(4-((4-(4-(3-(2,4-dihydroxy-5-isopropylphenyl)-5-hydroxy-4H-1,2,4-triazol-4-yl)benzyl)piperazin-1-yl)methyl)piperidin-1-yl)-3-oxopropyl)amino)-5,6,7,8-tetrahydropyrido[3,4-d]pyrimidin-4-yl)piperazin-2-yl)acetonitrile, trifluoroacetic acid]"
0.1 to 1,0.1 to 1,0.1 to 1,"CCC(=O)N1CCN(c2nc(N3CCC(CN4CCN(Cc5ccc(-n6c(O)nnc6-c6cc(C(C)C)c(O)cc6O)cc5)CC4)CC3)nc3c2CCN(c2cccc4cccc(Cl)c24)C3)C[C@@H]1CC#N [Compound 128, (S)-2-(4-(7-(8-chloronaphthalen-1-yl)-2-(4-((4-(4-(3-(2,4-dihydroxy-5-isopropylphenyl)-5-hydroxy-4H-1,2,4-triazol-4-yl)benzyl)piperazin-1-yl)methyl)piperidin-1-yl)-5,6,7,8-tetrahydropyrido[3,4-d]pyrimidin-4-yl)-1-propionylpiperazin-2-yl)acetonitrile]"
> 1,0.1 to 1,> 1,"CCc1cc(-c2nnc(O)n2-c2ccc(CN3CCN(CC4CCN(c5nc6c(c(N7CCN(C(=O)C(F)(F)F)[C@@H](CC#N)C7)n5)CCN(c5cccc7cccc(Cl)c57)C6)CC4)CC3)cc2)c(O)cc1O [Compound 131, (S)-2-(4-(7-(8-chloronaphthalen-1-yl)-2-(4-((4-(4-(3-(5-ethyl-2,4-dihydroxyphenyl)-5-hydroxy-4H-1,2,4-triazol-4-yl)benzyl)piperazin-1-yl)methyl)piperidin-1-yl)-5,6,7,8-tetrahydropyrido[3,4-d]pyrimidin-4-yl)-1-(2,2,2-trifluoroacetyl)piperazin-2-yl)acetonitrile]"
0.1 to 1,0.1 to 1,< 0.1,"C=CC(=O)N1CCN(c2nc(NCCC(=O)N3CCC(CN4CCN(Cc5ccc(-n6c(O)nnc6-c6cc(C(C)C)c(O)cc6O)cc5)CC4)CC3)nc3c2CCN(c2cccc4ccccc24)C3)C[C@H]1CC#N [Compound 78, (R)-2-(1-acryloyl-4-(2-((3-(4-((4-(4-(3-(2,4-dihydroxy-5-isopropylphenyl)-5-hydroxy-4H-1,2,4-triazol-4-yl)benzyl)piperazin-1-yl)methyl)piperidin-1-yl)-3-oxopropyl)amino)-7-(naphthalen-1-yl)-5,6,7,8-tetrahydropyrido[3,4-d]pyrimidin-4-yl)piperazin-2-yl)acetonitrile]"
0.1 to 1,> 1,< 0.1,"CCC(=O)N1CCN(c2nc(NCCC(=O)N3CCC(CN4CCN(Cc5ccc(-n6c(C(N)=O)nnc6-c6cc(CC)c(O)cc6O)cc5)CC4)CC3)nc3c2CCN(c2cc(O)cc4ccccc24)C3)CC1 [Compound 75, 5-(5-ethyl-2,4-dihydroxyphenyl)-4-(4-((4-((1-(3-((7-(3-hydroxynaphthalen-1-yl)-4-(4-propionylpiperazin-1-yl)-5,6,7,8-tetrahydropyrido[3,4-d]pyrimidin-2-yl)amino)propanoyl)piperidin-4-yl)methyl)piperazin-1-yl)methyl)phenyl)-4H-1,2,4-triazole-3-carboxamide, trifluoroacetic acid]"
